Assay results from patent publication US5229265A, “Process for analyzing clastogenic agents” (Litron Laboratories, priority 1990, dated 1993).
Several values for one entry are separate records, joined by “and”; a condition that tells them apart may be missing. Identical values can stand only once. Entries after “also recorded” stand apart in the source; their conditions may differ.

How the values were obtained:
[1] = system: micronucleated cells in blood; conditions: literature statement; cited from earlier work
[2] = system: micronucleated cells in blood; experiment: Flow cytometric micronucleus assay, dual parameter data, MMS, Hoechst 33258 stain, per 500,000 cells; assay type: in vivo, mouse
Source text: (§1) The fixation procedure can affect the permeability of a cell, cell morphology and the amount of undesirable autofluorescence that is associated with a cell preparation. Fixing procedures can cause changes in cell structure (that are reflected in the light scatter patterns) as well as changes in the distribution of the dye molecules within the cells (resulting in altered fluorescence emission patterns). Practioners of the art are unaware that fixing the cells at ultralow temperatures circumvents these fixation problems and provides cells that are suitable for subsequent staining and FCM analysis. Initially, the cells are centrifuged in order to separate them from serum components which could aggregate when added to cold fixative. To fix cells, a fresh blood sample (25 μl) containing an anticogulant is suspended in a solution containing 1% BSA and 10% dimethylsulfoxide (DMSO) in PBS (2 ml). The cells are centrifuged at 500×g for five minutes at room temperature. The supernatant is discarded and the pellet is resuspended in the small amount of residual supernatant that remains. This cell suspension is cooled to 0° C., the cells are diluted further with cold (-70° C.) absolute methanol (2 ml) and it is incubated at -70° C. for five minutes. The cell suspension is then immediately diluted with 1% BSA in PBS (10 ml) and is centrifuged at 500×g for 5 minutes. The low temperature treatment yields fixed cells with good morphology as viewed with either inverted phase contrast microscopy or fluorescent microscopy. […] Cells fixed in this way can be stored at 0° C. for weeks with no significant deterioration and are ready for staining and MN analysis.
(§2) It is known to practioners in the art that a variety of fluorescent dyes can be used to stain the DNA and RNA of cells. […] By choosing proper concentrations of these two dyes in conjunction with 363 nm excitation wavelength, it is possible to obtain a blue fluorescence signal from the Hoechst 33258 labeled micronucleii. A red fluorescence signal can be obtained from propidium iodide labeled PCEs. […]

[3] = system: micronucleated cells in blood; experiment: Effects of bleeding on the sensitivity of the micronucleus assay, MMS; assay type: in vivo, mouse; conditions: for MNs in 96 hr blood, MMS(D): MMS 100 μg/g body wt at 0 and 48 hrs; for Increase in MNs (D - C): MMS minus saline means
Source text: Earlier, it was pointed out that obtaining an initial blood sample (t=0) provides an important background measurement of the number of micronucleii in each mouse. Obtaining an initial blood sample also increases the sensitivity of the assay, due to the stimulation of the stem cells to replenish the lost blood. Clastogen action should be increased if cells are actively turning over, rather than subsisting in a quiscent state. In the absence of bleeding, new PCEs are introduced into the blood cells at a low steady state level and MNs are introduced at a spontaneous background level. […] Practioners in the art are unaware of this increase in sensitivity due to initial bleeding. […] In this experiment, control mice were dosed with 0.9% saline, whereas treated mice received MMS (100 μg/g body wt.) at 0 hr and at 48 hrs. The first set of mice (the L series) were not bleed prior to obtaining a 96 hour blood sample. The MN-cell level resulting from MMS treatment would reflect the probability of clastogen action in the steady state stem cell turnover rate. The second set of mice (the M series) were bleed 166 hrs prior to the initial clastogen dose. In this set, the minus 166 hr bleeding will cause stem cell proliferation and differentiation, but the system should begin to return to steady state once the blood is replenished. The third set (the K series) was bleed at t=0hr where upon dosing was initiated, and a final blood sample was obtained at t=96 hrs.
Since the L series was not initially bleed, the initial blood samples were not used in the analysis of the M or K series for equal comparison with L. Rather, only the 96 hour blood samples were analyzed in each set. The difference, D, between the saline controls and the dosed mice should reflect the level of turnover of the stem cells and the suseptibility of said cells to clastogen action in each case. […] Although the M series had 166 hrs to recover from the initial bleeding before being dosed with MMS, the stem cells still appear to be fairly active, and an intermediate level of micronucleated cells was obtained (i.e. 513 events above background). Finally, the highest activity was obtained with the K-series wherein the mice were bleed and immediately dosed. In this case, the stem cells are turning over at a high rate to replenish the blood at a time when the concentration of MMS is also high. […] The results in Tables 2 and 4 provide additional experimental evidence that bleeding stimulates stem cell proliferation and differentiation. […] This increase in sensitivity could be particularly important in cases where a week clastogen is being investigated.

[4] = system: micronucleated cells in blood; experiment: Flow cytometric micronucleus assay, list mode data, blood of MMS treated mice, per 10,000 PCEs; assay type: in vivo, mouse
Source text: as §1, §2

[5] = MMS 100 μg/g body weight IP at 0 and 48 hours, Hoechst 33258
[6] = K Series: initial bleeding at t = 0
[7] = M Series: initial bleeding at -166 hr

Row | SMILES | clastogenic activity (documented) [1] | Mns (96 hr) [2, 5] | Δ (T96 - T0), change in MNs [2, 5] | change (Δ) in MNs versus control mice ([2]; MMS 100 μg/g body weight at 0 and 48 hours, 96 hr blood) | MNs in 96 hr blood, MMS(D) [3, 6] | Increase in MNs (D - C) [3, 6] | MNs in 96 hr blood, MMS(D) ([3]; L Series: no initial bleeding) | Increase in MNs (D - C) ([3]; L Series: no initial bleeding) | MNs in 96 hr blood, MMS(D) [3, 7] | Increase in MNs (D - C) [3, 7] | Experimental (A96) (MN96 hr) ([4]; MMS 100 μg/g body weight IP at 0 and 48 hours, 96 hr blood, list mode) | Δ (A96 - T96), change in number of MNs ([4]; MMS 100 μg/g body weight IP at 0 and 48 hours, normalized with K, list mode) | clastogenic activity ([4]; MMS 100 μg/g body weight IP at t=0 and t=48 hours)
1 | O=P1(N(CCCl)CCCl)NCCCO1 (stereo not shown) [cyclophosphamide] | clastogenic activity of cyclophosphamide has been documented |  |  |  |  |  |  |  |  |  |  |  | 
2 | COS(C)(=O)=O [MMS, methyl methanesulfonate] |  | 1654 MNs per 500,000 cells and 1424 MNs per 500,000 cells and 1360 MNs per 500,000 cells and 1662 MNs per 500,000 cells | 713 MNs per 500,000 cells and 620 MNs per 500,000 cells and 512 MNs per 500,000 cells and 540 MNs per 500,000 cells and 596 ± 90 MNs per 500,000 cells | significantly higher than the Δ values for the control mice; also recorded: increase in the number of MNs in the analysis area relative to the initial blood | 1829 and 1794 and 1812 | 777 | 1352 and 1390 and 1331 and 1357 ± 30 | 314 | 1776 and 1541 and 1673 and 1663 ± 118 | 513 | 432 MNs/10,000 PCEs and 546 MNs/10,000 PCEs and 470 MNs/10,000 PCEs and 523 MNs/10,000 PCEs and 580 MNs/10,000 PCEs | 293 MNs/10,000 PCEs and 342 MNs/10,000 PCEs and 328 MNs/10,000 PCEs and 307 MNs/10,000 PCEs and 374 MNs/10,000 PCEs and 329 ± 32 MNs/10,000 PCEs and 329±28 MNs/10,000 PCEs | MMS exhibited clastogenic activity
